Test results as given in US11452726B2, “Salts of 2-fluoro-N-methyl-4-[7-(quinolin-6-yl-methyl)-imidazo[1,2-b][1,2,4]triazin-2-yl]benzamide and processes related to preparing the same” (Incyte Corporation, priority 2008, dated 2022).

Key:
[1] = physchem; conditions: 25 °C, thermodynamic from solid
Method: (§1) The sample concentration was then determined by HPLC using a single point calibration.

[2] = Equilibrium solubility in aqueous solvents, concentration by HPLC; conditions: 25° C., mixing at least 12 hours, listed as dihydrochloric acid salt, dihydrochloride
Method: as §1

[3] = 0.1 N aqueous HCl, simulated gastric fluid
[4] = pH 7.4 buffer, pH 7.4, aqueous buffer
[5] = pH 8.0 buffer, pH 8, aqueous buffer

Structure (SMILES)	solubility [1, 3]	solubility [1, 4]	solubility [1, 5]	solubility ([1]; water)	solubility in water [2]
CNC(=O)c1ccc(-c2cnc3ncc(Cc4ccc5ncccc5c4)n3n2)cc1F.Cl.Cl [Compound 21, 2-Fluoro-N-methyl-4-(7-(quinolin-6-ylmethyl)imidazo[1,2-b][1,2,4]triazin-2-yl)benzamide dihydrochloride]	~24000 µg/mL	2 µg/mL	2 µg/mL	~4900 µg/mL	approximately 4.5 mg/mL
CNC(=O)c1ccc(-c2cnc3ncc(Cc4ccc5ncccc5c4)n3n2)cc1F.O=S(=O)(O)c1ccccc1.O=S(=O)(O)c1ccccc1 [dibenzenesulfonic acid salt, 2-Fluoro-N-methyl-4-[7-(quinolin-6-ylmethyl)imidazolo[1,2-b][1,2,4]triazin-2-yl]benzamide dibenzenesulfonic acid salt]	≥ 29000 µg/mL	3 µg/mL	3 µg/mL	~3900 µg/mL	–
